Measured values published in PubChem BioAssay (NCI).
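These data come from cells grown in 96-well plates and exposed to compound for 48 hours at five concentrations. At the GI50, growth is halved. TGI is the concentration that stops growth completely.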

How the values were obtained:
Test in all cases: inhibition of tumour cell growth, NCI panel, 48 h
MCF7 breast = system: MCF7 breast
SF-295 CNS = system: SF-295 CNS
ACHN renal = system: ACHN renal
SK-MEL-2 melanoma = system: SK-MEL-2 melanoma
T-47D breast = system: T-47D breast
COLO 205 colon = system: COLO 205 colon
SK-MEL-5 melanoma = system: SK-MEL-5 melanoma
UACC-257 melanoma = system: UACC-257 melanoma
OVCAR-3 ovarian = system: OVCAR-3 ovarian
HCT-116 colon = system: HCT-116 colon
A549 NSCLC = system: A549 NSCLC
SK-MEL-28 melanoma = system: SK-MEL-28 melanoma
HCC-2998 colon = system: HCC-2998 colon
HOP-62 NSCLC = system: HOP-62 NSCLC
SN12C renal = system: SN12C renal
CAKI-1 renal = system: CAKI-1 renal
HS 578T breast = system: HS 578T breast
IGROV1 ovarian = system: IGROV1 ovarian
NCI/ADR-RES ovarian = system: NCI/ADR-RES ovarian
MOLT-4 leukemia = system: MOLT-4 leukemia
MDA-MB-231 breast = system: MDA-MB-231 breast
DU-145 prostate = system: DU-145 prostate
RXF 393 renal = system: RXF 393 renal
SNB-19 CNS = system: SNB-19 CNS
NCI-H226 lung = system: NCI-H226 lung
TK-10 renal = system: TK-10 renal
SW-620 colon = system: SW-620 colon
SF-268 CNS = system: SF-268 CNS
K-562 leukemia = system: K-562 leukemia
SK-OV-3 ovarian = system: SK-OV-3 ovarian
HOP-92 NSCLC = system: HOP-92 NSCLC
SNB-75 CNS = system: SNB-75 CNS
HT29 colon = system: HT29 colon
M14 melanoma = system: M14 melanoma
U251 CNS = system: U251 CNS
HL-60(TB) leukemia = system: HL-60(TB) leukemia
786-0 renal = system: 786-0 renal
MALME-3M melanoma = system: MALME-3M melanoma
BT-549 breast = system: BT-549 breast
OVCAR-4 ovarian = system: OVCAR-4 ovarian
SR leukemia = system: SR leukemia
PC-3 prostate = system: PC-3 prostate
EKVX NSCLC = system: EKVX NSCLC
KM12 colon = system: KM12 colon
HCT-15 colon = system: HCT-15 colon
UO-31 renal = system: UO-31 renal
LOX IMVI melanoma = system: LOX IMVI melanoma
OVCAR-8 ovarian = system: OVCAR-8 ovarian
NCI-H460 lung = system: NCI-H460 lung
OVCAR-5 ovarian = system: OVCAR-5 ovarian
UACC-62 melanoma = system: UACC-62 melanoma
RPMI-8226 leukemia = system: RPMI-8226 leukemia
A498 renal = system: A498 renal
NCI-H522 lung = system: NCI-H522 lung
SF-539 CNS = system: SF-539 CNS
MDA-MB-435 = system: MDA-MB-435

N/C(=N\c1nc2c(Br)cccc2s1)C(Br)Br
GI50 (MCF7 breast): 2.25 µM
TGI (MCF7 breast): 11.3 µM
GI50 (SF-295 CNS): 10.6 µM
TGI (SF-295 CNS): 25.9 µM
GI50 (ACHN renal): 2.98 µM
TGI (ACHN renal): 11.8 µM
GI50 (SK-MEL-2 melanoma): 15.4 µM
TGI (SK-MEL-2 melanoma): 34.7 µM
GI50 (T-47D breast): 10.3 µM
TGI (T-47D breast): 36.1 µM
GI50 (COLO 205 colon): 3.49 µM
TGI (COLO 205 colon): 13.9 µM
GI50 (SK-MEL-5 melanoma): 17.5 µM
TGI (SK-MEL-5 melanoma): 32 µM
GI50 (UACC-257 melanoma): 13.5 µM
TGI (UACC-257 melanoma): 28 µM
GI50 (OVCAR-3 ovarian): 4.19 µM
TGI (OVCAR-3 ovarian): 16.6 µM
GI50 (HCT-116 colon): 2.27 µM
TGI (HCT-116 colon): 16.8 µM
GI50 (A549 NSCLC): 7.76 µM
TGI (A549 NSCLC): 21.9 µM
GI50 (SK-MEL-28 melanoma): 11.1 µM
TGI (SK-MEL-28 melanoma): 23.3 µM
GI50 (HCC-2998 colon): 3.62 µM
TGI (HCC-2998 colon): 14.3 µM
GI50 (HOP-62 NSCLC): 10.5 µM
TGI (HOP-62 NSCLC): 27.8 µM
GI50 (SN12C renal): 11.7 µM
TGI (SN12C renal): 29.8 µM
GI50 (CAKI-1 renal): 2.1 µM
TGI (CAKI-1 renal): 8.98 µM
GI50 (HS 578T breast): 7.24 µM
TGI (HS 578T breast): > 100 µM
GI50 (IGROV1 ovarian): 10.4 µM
TGI (IGROV1 ovarian): 31.6 µM
GI50 (NCI/ADR-RES ovarian): 2.58 µM
TGI (NCI/ADR-RES ovarian): 9.81 µM
GI50 (MOLT-4 leukemia): 3.9 µM
TGI (MOLT-4 leukemia): 27.3 µM
GI50 (MDA-MB-231 breast): 5.51 µM
TGI (MDA-MB-231 breast): 28 µM
GI50 (DU-145 prostate): 3.84 µM
TGI (DU-145 prostate): 16 µM
GI50 (RXF 393 renal): 2.74 µM
TGI (RXF 393 renal): 9.95 µM
GI50 (SNB-19 CNS): 10.4 µM
TGI (SNB-19 CNS): 27.8 µM
GI50 (NCI-H226 lung): 11.3 µM
TGI (NCI-H226 lung): 38.6 µM
GI50 (TK-10 renal): 15.9 µM
TGI (TK-10 renal): 32.2 µM
GI50 (SW-620 colon): 2.26 µM
TGI (SW-620 colon): 11.2 µM
GI50 (SF-268 CNS): 4.67 µM
TGI (SF-268 CNS): 26.9 µM
GI50 (K-562 leukemia): 2.66 µM
TGI (K-562 leukemia): 52.7 µM
GI50 (SK-OV-3 ovarian): 10.8 µM
TGI (SK-OV-3 ovarian): 35.4 µM
GI50 (HOP-92 NSCLC): 6.07 µM
TGI (HOP-92 NSCLC): 29.4 µM
GI50 (SNB-75 CNS): 10.2 µM
TGI (SNB-75 CNS): 22.1 µM
GI50 (HT29 colon): 2.91 µM
TGI (HT29 colon): 12.8 µM
GI50 (M14 melanoma): 10.4 µM
TGI (M14 melanoma): 28.1 µM
GI50 (U251 CNS): 2.83 µM
TGI (U251 CNS): 12.1 µM
GI50 (HL-60(TB) leukemia): 7.38 µM
TGI (HL-60(TB) leukemia): 57.5 µM
GI50 (786-0 renal): 13.1 µM
TGI (786-0 renal): 35.2 µM
GI50 (MALME-3M melanoma): 8.53 µM
TGI (MALME-3M melanoma): 24.4 µM
GI50 (BT-549 breast): 11.2 µM
TGI (BT-549 breast): 29.9 µM
GI50 (OVCAR-4 ovarian): 6.21 µM
TGI (OVCAR-4 ovarian): 30.6 µM
GI50 (SR leukemia): 4.68 µM
TGI (SR leukemia): 31 µM
GI50 (PC-3 prostate): 8.68 µM
TGI (PC-3 prostate): 26.1 µM
GI50 (EKVX NSCLC): 11.4 µM
TGI (EKVX NSCLC): 28 µM
GI50 (KM12 colon): 4.29 µM
TGI (KM12 colon): 22.4 µM
GI50 (HCT-15 colon): 2.57 µM
TGI (HCT-15 colon): 11.5 µM
GI50 (UO-31 renal): 5.69 µM
TGI (UO-31 renal): 20.2 µM
GI50 (LOX IMVI melanoma): 0.307 µM
TGI (LOX IMVI melanoma): 1.29 µM
GI50 (OVCAR-8 ovarian): 8.18 µM
TGI (OVCAR-8 ovarian): 24.1 µM
GI50 (NCI-H460 lung): 2.55 µM
TGI (NCI-H460 lung): 11.5 µM
GI50 (OVCAR-5 ovarian): 12 µM
TGI (OVCAR-5 ovarian): 25.8 µM
GI50 (UACC-62 melanoma): 6.63 µM
TGI (UACC-62 melanoma): 24.3 µM
GI50 (RPMI-8226 leukemia): 2.97 µM
TGI (RPMI-8226 leukemia): 16.4 µM
GI50 (A498 renal): 21.5 µM
TGI (A498 renal): 50.6 µM
GI50 (NCI-H522 lung): 6.16 µM
TGI (NCI-H522 lung): 21.7 µM
GI50 (SF-539 CNS): 3.7 µM
TGI (SF-539 CNS): 15 µM
GI50 (MDA-MB-435): 3.22 µM
TGI (MDA-MB-435): 13.7 µM
